Source: patent US20220404341A1, “METHODS AND APPARATUS FOR MEASURING IMMUNE MEDIATED TUMOROID RESPONSES” (VITROSCAN B.V., priority 2019, published 2022)

Experiments:
Assay type in all cases: cell-based, human
ovarian cancer tumoroids = test: ex vivo 3D patient derived tumour culture with 3D imaging, ovarian cancer samples; conditions: for area size of small objects: FIG. 5 (same sample as FIG. 4)
[1] = test system: patient derived tumour cultures; test: Selection Factor (tumoroids' area decrease) across patient samples; conditions: for immune reaction reducing the number of tumour cells (Selection Factor metric across samples): FIGS. 8 and 9, alone or in combination, naïve patient sample; for Tumoroids' area decrease (%) as Selection Factor, effect when used alone: experiments shown in FIG. 8
[2] = test system: Mesothelioma tumour sample; test: ex vivo 3D patient derived tumour culture with 3D imaging, mesothelioma sample; conditions: FIG. 3
lung tumour sample = test: ex vivo 3D patient derived tumour culture with 3D imaging, lung tumour sample; conditions: FIG. 6
IFN-γ = IFN-γ production in treated patient derived tumour cultures; conditions: FIG. 7; IFN-γ is secreted by activated T-cells

Compound	area size of small objects (ovarian cancer tumoroids; ovarian tumour sample)	immune reaction reducing the number of tumour cells (Selection Factor metric across samples) [1]	immune-mediated tumoroid killing effect [2]	immune-mediated tumoroid killing effect (lung tumour sample)	IFN-γ production (IFN-γ)	activating native immune cells to kill tumoroids (total area of objects larger than 422 μm^2 and of objects smaller than 160 μm^2) (ovarian cancer tumoroids; ovarian cancer samples of FIG. 1, one-sided Wilcoxon test)	activating native immune cells to kill tumoroids (ovarian cancer tumoroids; ovarian cancer samples of FIG. 2)	Tumoroids' area decrease (%) as Selection Factor, effect when used alone [1]	immune-mediated tumoroid killing effect (area size reduction of tumoroid clusters) (ovarian cancer tumoroids; ovarian tumour sample, FIG. 4)
Nc1ncnc2c1ncn2[C@@H]1O[C@@H]2COP(=O)([S-])O[C@@H]3[C@H](O)[C@@H](COP([O-])(=S)O[C@H]2[C@H]1O)O[C@H]3n1cnc2c(N)ncnc21.[Na+].[Na+] (stereo partly shown) [ADU-S100]	area size increase of small objects	–	–	–	–	–	–	–	–
O=C(c1cc(Cc2n[nH]c(=O)c3ccccc23)ccc1F)N1CCN(C(=O)C2CC2)CC1 [olaparib]	–	able to start an immune reaction that effectively reduced the number of tumour cells	–	–	–	–	–	–	–
ipilimumab	–	able to start an immune reaction that effectively reduced the number of tumour cells	immune-mediated tumoroid killing effect	immune-mediated tumoroid killing effect	increased	effective in activating native immune cells to kill ovarian cancer tumoroids	does not show effectiveness in activating native immune cells to kill tumoroids	–	–
nivolumab	–	able to start an immune reaction that effectively reduced the number of tumour cells	–	immune-mediated tumoroid killing effect	–	–	–	do not show any effect when used alone	–
pembrolizumab	area size increase of small objects	able to start an immune reaction that effectively reduced the number of tumour cells	–	immune-mediated tumoroid killing effect	–	–	–	do not show any effect when used alone	immune-mediated tumoroid killing effect
